Results taken from PMC7083851, “Extended pharmacodynamic responses observed upon PROTAC-mediated degradation of RIPK2” (Communications Biology, 2020).
Values joined by “and” are separate entries in the source; they are usually repeats but may differ in a detail not shown here. Equal values may be shown once. Read-outs that look alike come from different tables or passages of the source.

What was measured:
[1] = Blood concentrations after subcutaneous dosing in rat PK/PD studies; assay type: in vivo
Procedure: Female CD rats (7–8 weeks old on arrival, Charles River Ltd.) were placed into groups using a randomization schedule based on body weight prior to the study start. All animals were acclimatized for a minimum of one week prior to the experiment commencing. […] PROTAC 4 was dissolved in saline with the pH adjusted to 5.0 with sodium hydroxide (1 M).

[2] = tested on: L18-MDP-induced TNFα release; test: L18-MDP-induced cytokine release (TNFα, IL1β, IL-6, IL-8, IL-10) in human PBMCs; assay type: cell-based; conditions: L18-MDP-induced TNFα release, human PBMCs, 6 h
Procedure: PBMCs were isolated from leukodepletion filter from platelet aphaeresis supplied by National Health System Blood and Transplant—NHSBT Apheresed at NHBST.
Before treatment with compound or vehicle, THP1 cells, human and rat PBMCs were counted using Vi-Cell cell counter (Invitrogen) and adjusted to a final cell density of […] using complete growth medium. Cells or whole blood were treated with vehicle (0.1% DMSO) or fixed concentrations of compound up to 1 μM in half log unit increments and incubated for the time period indicated in the figure.
Where the assessment of cytokines was performed, L18-MDP was added to the cell culture media (1 μg/ml) or to the rat blood samples (100 ng/ml) and samples were incubated for up to 4 h. […] Samples were them spun down at 1000 g and the cell culture supernatant, plasma or serum were collected for cytokines assessment, while cell pellets were used for RIPK2 and/or cIAP1, cIAP2, and XIAP levels analysis via immunoblotting.
(§1) Cytokine measurement assay: Cytokine levels were measured in rat plasma or rat PBMCs cell culture supernatants using rat V-Plex TNFα, in human plasma or human PBMCs cell culture supernatants with either TNFα tissue culture or 7-plex kit. Rat serum and tissues samples from the in vivo L18-MDP acute inflammation model were analyzed using the rat TNFα, Il-6 and IL-8 U-Plex kits. All kits provided by Meso Scale Discovery (MSD). Levels of cytokines spontaneously released from human colon biopsies cell culture supernatants were measured using Human IL-1 beta/IL-1F2 DuoSet ELISA (Bio-techne), Human IL-6 ELISA (Immunotools) and Human TNF-alpha DuoSet ELISA (Bio-techne). All samples were processed accordingly to the manufacturer’s instructions. The MSD plates were analyzed using the MSD sector imager 6000 plate reader and cytokines concentration (pg/ml) was obtained by using the MSD DISCOVERY WORKBENCH software version 4.0.12.1
In vitro experimental data were analyzed using a 4-parameter logistic equation in GraphPad Prism 5.0.4. to generate an estimate of the half-maximal concentration and maximal degradation, DC50 and Dmax value respectively, for concentration-degradation relationships. Cytokine levels were analyzed in a similar manner to yield IC50 and Imax values. […] Where analysis to a sigmoidal relationship was not possible, the data points are shown as mean ± s.e.m.

[3] = tested on: L18-MDP-stimulated TNFα release; test: TNFα after ex vivo L18-MDP stimulation of blood from dosed rats; assay type: in vivo, rat; conditions: for TNFa level after ex vivo L18-MDP stimulation vs pre-dose, individual rat: 20 mg/kg SC single dose, 7-day study
Procedure: Male CD or Wistar Han rats (7–9 weeks old, Charles River UK Ltd.) were randomly allocated to treatment groups upon arrival. Female CD rats (7–8 weeks old on arrival, Charles River Ltd.) were placed into groups using a randomization schedule based on body weight prior to the study start. All animals were acclimatized for a minimum of one week prior to the experiment commencing.
Subcutaneous PROTAC solution formulations were prepared on the day of dosing as outlined below and filtered through a 0.22 µm Millex PVDF filter (Millipore) prior to PROTAC administration. PROTAC 4 was dissolved in saline with the pH adjusted to 5.0 with sodium hydroxide (1 M).
Ex vivo stimulation of rat blood with L18-MDP for PD: PPD blood samples taken prior to PROTAC administration or at fixed timepoints post PROTAC administration through the course of the study, were treated ex vivo with 100 ng/mL L18-MDP (Invivogen) or vehicle (0.1% DMSO) and incubated for 4 h. Following centrifugation, plasma was collected for cytokines analysis as detailed in cytokines assay section. Additionally, RIPK2 levels were determined in PBMCs isolated from blood and where collected, in sampled colon tissue as described in the text.
as §1
Statistics and reproducibility: All data were represented as percentage of the control sample: DMSO treated cells for the in vitro assays and the pre-dose or vehicle sample for the in vivo experiments.

For CN[C@@H](C)C(=O)N[C@H](C(=O)N1CCC[C@H]1c1nc(C(=O)c2ccc(F)cc2)cs1)C1CCN(C(=O)c2cnc(N3CCN(CCOc4cc5ncnc(Nc6n[nH]c(C)c6C)c5cc4S(=O)(=O)C(C)(C)C)CC3)nc2)CC1 [PROTAC 4], the “blood concentration, individual rat” value ([1]; 5 mg/kg SC, 14-day study, 0.25 h) was 79.2 ng/mL and 80.8 ng/mL and 137 ng/mL, the “PK, blood concentration, individual rat” value ([1]; 20 mg/kg SC single dose, 7-day study, 0.25 h) was 142.1 ng/mL and 262.3 ng/mL and 219.2 ng/mL and 88.3 ng/mL and 114.7 ng/mL and the “PK, blood concentration, individual rat” value ([1]; 20 mg/kg SC single dose, 7-day study, 0.5 h) was 113.3 ng/mL and 220.7 ng/mL and 177.2 ng/mL and 88.4 ng/mL and 248.8 ng/mL. For the same molecule, the “PK, blood concentration, individual rat” value ([1]; 20 mg/kg SC single dose, 7-day study, 1 h) was 131.0 ng/mL and 198.9 ng/mL and 114.6 ng/mL and 195.5 ng/mL, the “PK, blood concentration, individual rat” value ([1]; 20 mg/kg SC single dose, 7-day study, 2 h) was 110.9 ng/mL and 278.2 ng/mL and 204.9 ng/mL and 96.5 ng/mL and 292.6 ng/mL and the “PK, blood concentration, individual rat” value ([1]; 20 mg/kg SC single dose, 7-day study, 4 h) was 211.6 ng/mL and 307.5 ng/mL and 375.8 ng/mL and 186.8 ng/mL and 240.9 ng/mL. The “PK, blood concentration, individual rat” value ([1]; 20 mg/kg SC single dose, 7-day study, 8 h) was 104.7 ng/mL and 227.5 ng/mL and 262.0 ng/mL and 193.4 ng/mL and 268.5 ng/mL, the “PK, blood concentration, individual rat” value ([1]; 20 mg/kg SC single dose, 7-day study, 24 h) was 240.6 ng/mL and 261.7 ng/mL and 347.0 ng/mL and 497.6 ng/mL and 315.9 ng/mL and 347 ng/mL and the “PK, blood concentration, individual rat” value ([1]; 20 mg/kg SC single dose, 7-day study, 72 h) was 253.7 ng/mL and 143.8 ng/mL and 111.7 ng/mL and 90.2 ng/mL and 121.5 ng/mL and 90.15 ng/mL. For the same molecule, the “PK, blood concentration, individual rat” value ([1]; 20 mg/kg SC single dose, 7-day study, 168 h) was 15.0 ng/mL and 7.4 ng/mL and 9.6 ng/mL and 9.4 ng/mL and 6.1 ng/mL and 15.02 ng/mL and 7.438 ng/mL and 9.644 ng/mL and 9.399 ng/mL and 6.103 ng/mL, the “blood concentration, individual rat” value ([1]; 20 mg/kg SC, 14-day study, 0.25 h) was 103 ng/mL and 111 ng/mL and 92.3 ng/mL and 10.6 ng/mL and 39.4 ng/mL and the “blood concentration, individual rat” value ([1]; 20 mg/kg SC, 14-day study, 0.5 h) was 115 ng/mL and 140 ng/mL and 82.5 ng/mL and 99.9 ng/mL. The “blood concentration, individual rat” value ([1]; 20 mg/kg SC, 14-day study, 1 h) was 173 ng/mL and 63.3 ng/mL and 90.1 ng/mL and 113 ng/mL and 45.9 ng/mL, the “blood concentration, individual rat” value ([1]; 20 mg/kg SC, 14-day study, 2 h) was 141 ng/mL and 113 ng/mL and 120 ng/mL and 223 ng/mL and the “blood concentration, individual rat” value ([1]; 20 mg/kg SC, 14-day study, 4 h) was 226 ng/mL and 313 ng/mL and 572 ng/mL and 294 ng/mL and 206 ng/mL. The “blood concentration, individual rat” value ([1]; 20 mg/kg SC, 14-day study, 8 h) was 159 ng/mL and 180 ng/mL and 329 ng/mL and 167 ng/mL and 200 ng/mL, the “blood concentration, individual rat” value ([1]; 20 mg/kg SC, 14-day study, 24 h) was 698 ng/mL and 518 ng/mL and 213 ng/mL and 503 ng/mL and 150 ng/mL and the “blood concentration, individual rat” value ([1]; 20 mg/kg SC, 14-day study, 72 h) was 14.1 ng/mL and 69.4 ng/mL and 30 ng/mL and 33.4 ng/mL and 57.6 ng/mL. The “blood concentration, individual rat” value ([1]; 20 mg/kg SC, 14-day study, 168 h) was 3.47 ng/mL and 10.5 ng/mL and 2.32 ng/mL and 3.82 ng/mL and 4.88 ng/mL, the “blood concentration, individual rat” value ([1]; 20 mg/kg SC, 14-day study, 240 h) was 1.11 ng/mL and 2.09 ng/mL and 1.34 ng/mL and the concentration at 7 days ([1]; rat, blood, sc, 20 mg/kg, rat, single 20 mg/kg SC, after 7 days, read-out: compound levels in blood at later time-points) was under 10 ng/mL. For the same molecule, the concentration at 1 h ([1]; rat, blood, subcutaneous, 20 mg/kg, 20 mg/kg SC single dose, 7-day study, 1 h, read-out: PK, blood concentration, individual rat) was 132 ng/mL, the concentration at 0.5 h ([1]; rat, blood, subcutaneous, 20 mg/kg, 20 mg/kg SC, 14-day study, 0.5 h, read-out: blood concentration, individual rat) was 126 ng/mL and the concentration at 2 h ([1]; rat, blood, subcutaneous, 20 mg/kg, 20 mg/kg SC, 14-day study, 2 h, read-out: blood concentration, individual rat) was 124 ng/mL. The concentration at 240 h ([1]; rat, blood, subcutaneous, 20 mg/kg, 20 mg/kg SC, 14-day study, 240 h, read-out: blood concentration, individual rat) was 1.68 ng/mL, the concentration at […] ([1]; rat, blood, subcutaneous, 20 mg/kg, 20 mg/kg SC, 14-day study, […], read-out: blood concentration, individual rat) was 1.71 ng/mL and the concentration at 24 h ([1]; rat, whole blood, subcutaneous, 1 mg/kg, 1 mg/kg SC, 14-day study, 24 h, read-out: blood concentration, individual rat) was 7.14 ng/mL. For the same molecule, the concentration at 72 h ([1]; rat, whole blood, subcutaneous, 1 mg/kg, 1 mg/kg SC, 14-day study, 72 h, read-out: blood concentration, individual rat) was 1.67 ng/mL, the concentration at 24 h ([1]; rat, whole blood, subcutaneous, 5 mg/kg, 5 mg/kg SC, 14-day study, 24 h, read-out: blood concentration, individual rat) was 29.2 ng/mL and the concentration at 168 h ([1]; rat, whole blood, subcutaneous, 5 mg/kg, 5 mg/kg SC, 14-day study, 168 h, read-out: blood concentration, individual rat) was 4.77 ng/mL. For the same molecule, the concentration at 240 h ([1]; rat, whole blood, subcutaneous, 5 mg/kg, 5 mg/kg SC, 14-day study, 240 h, read-out: blood concentration, individual rat) was 1.13 ng/mL, the “hPBMC MDP pIC50 ± SEM, 6 h (n = 3)” value [2] was 8.0 ± 0.5 and the “TNFa level after ex vivo L18-MDP stimulation vs pre-dose, individual rat” value (from here on “TNFa level … vs pre-dose, individual rat”) ([3]; 8 h) was 9.24% and 8.84% and 7.78% and 9.53% and 3.34%. The “TNFa level … vs pre-dose, individual rat” value ([3]; 24 h) was 3.87% and 3.74% and 8.65% and 6.37% and 4.55%, the “TNFa level … vs pre-dose, individual rat” value ([3]; 72 h) was 10.34% and 56.63% and 10.25% and 43.76% and 3.57% and the “TNFa level … vs pre-dose, individual rat” value ([3]; 168 h) was 12.29% and 8.70% and 24.16% and 13.36% and 15.12%. For the same molecule, the “TNFα inhibition following ex vivo L18-MDP stimulation in rat blood” value ([3]; single 20 mg/kg SC, throughout the 7-day study) was over 70%.
